The text below walks through data of patent US20120041012A1, “SUBSTITUTED SPIROCYCLIC AMINES USEFUL AS ANTIDIABETIC COMPOUNDS” (priority 2009, published 2012).

Some results are limits rather than exact numbers.

The Ki is the equilibrium dissociation constant of an inhibitor or competing ligand from its target. Lower therefore signals tighter binding. For orientation: IC50 means the midpoint of a concentration-inhibition curve.

Assay [1] has as its target T1, SSTR5 (Homo sapiens, UniProt P35346). Nature of the assay: SSTR5 receptor-ligand binding assay, CHO-K1 cell membranes, 125I-SRIF radioligand. Set-up: expressed in transfected cells; host or cells: CHO-K1 (membranes). The following applies: Table 2. The procedure: The receptor-ligand binding assays of all 5 subtype of SSTRs were performed with membranes isolated from Chinese hamster ovary (CHO)-K1 cells stably expressing the cloned human somatostatin receptors in 96-well format as previous reported.
The stable cell lines for SSTR1-SSTR5 were developed by stably transfecting with DNA for all five SSTRs using Lipofectamine. […] The assay buffer consisted of 50 mM TrisHCl (pH 7.8) with 1 mM EGTA, 5 mM MgCl2, leupeptin (10 μg/mL), pepstatin (10 μg/mL), bacitracin (200 μg/mL), and aprotinin (0.5 μg/mL). CHO-K1 cell membranes, radiolabeled somatostatin, and unlabeled test compounds were resuspended or diluted in this assay buffer. Unlabeled test compounds were examined over a range of concentrations from 0.01 nM to 10,000 nM.

Assay [2] addresses T1, SSTR5. Description: Functional assay of SSTR5 mediated cyclic AMP production in SSTR5 expressing CHO cells. Type of assay: cell-based, human or mouse. Conditions: Table 2; FSK plus SS-28; read-out: SSTR5 (cAMP) IC50.

T1 sequence (P35346 whole entry): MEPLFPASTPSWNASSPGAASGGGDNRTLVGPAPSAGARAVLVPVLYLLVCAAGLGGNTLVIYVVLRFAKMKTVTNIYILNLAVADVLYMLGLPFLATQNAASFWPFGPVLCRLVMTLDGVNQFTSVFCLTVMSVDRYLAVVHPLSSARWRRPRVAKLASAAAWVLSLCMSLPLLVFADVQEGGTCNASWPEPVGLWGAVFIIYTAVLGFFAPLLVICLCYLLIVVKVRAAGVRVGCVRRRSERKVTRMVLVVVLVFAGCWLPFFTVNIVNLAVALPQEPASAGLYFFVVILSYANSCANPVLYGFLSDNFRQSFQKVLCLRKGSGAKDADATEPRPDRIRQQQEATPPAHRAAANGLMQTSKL

Consider `CCOc1cc(CN2CCC3(CC2)CNC(=O)C3)cc(OCC)c1-c1ccc(F)cc1` [Example 1, 8-[(2,6-diethoxy-4′-fluorobiphenyl-4-yl)methyl]-2,8-diazaspiro[4.5]decan-3-one], for which affinity on SSTR5 [1] was put at a Ki of 21 nM. For the same compound, the IC50 at SSTR5 [2] is 52 nM.
The corresponding values for `CCOc1cc(CN2CCC3(CC2)CC(=O)N(c2ccc(C(N)=O)cc2)C3)cc(OCC)c1-c1ccc(F)cc1` [Example 3, 4-{8-[(2,6-diethoxy-4′-fluorobiphenyl-4-yl)methyl]-3-oxo-2,8-diazaspiro[4.5]dec-2-yl}benzamide trifluoromethyl acetate] are 8.7 nM and 33 nM.
Consider `CCOc1cc(CN2CCC3(CC2)CC(=O)N(c2ccc(C(=O)O)cc2)C3)cc(OCC)c1Br` [Example 5], for which, at SSTR5 [1], the Ki turned out to be 7.5 nM. Also, the IC50 on SSTR5 [2] came to 3.9 nM.
The corresponding values for `CCOc1cc(CN2CCC3(CC2)CC(=O)N(c2ccc(-c4noc(=O)[nH]4)cc2)C3)cc(OCC)c1-c1ccc(F)cc1` [Example 6, 8-[(2,6-diethoxy-4′-fluorobiphenyl-4-yl)methyl]-2-[4-(5-oxo-4,5-dihydro-1,2,4-oxadiazol-3-yl)phenyl]-2,8-diazaspiro[4.5]decan-3-one] are 1 nM and 1.8 nM.
The corresponding values for `CCOc1cc(CN2CCC3(CC2)CC(=O)N(c2ccc(-c4nnn[nH]4)cc2)C3)cc(OCC)c1-c1ccc(F)cc1` [Example 7, 8-[(2,6-diethoxy-4′-fluorobiphenyl-4-yl)methyl]-2-[4-(1-H-tetrazol-5-yl)phenyl]-2,8-diazaspiro[4.5]decan-3-one trifluoromethyl acetate] are 0.76 nM and 1.3 nM.
At SSTR5 [1], `CCOc1cc(CN2CCC3(CC2)CC(=O)N(CC(=O)O)C3)cc(OCC)c1-c1ccc(F)cc1` [Example 8, {8-[(2,6-diethoxy-4′-fluorobiphenyl-4-yl)methyl]-3-oxo-2,8-diazaspiro[4.5]dec-2-yl}acetic acid trifluoromethyl acetate] gave a Ki of 190 nM. In addition, on SSTR5 [2], the IC50 was 159 nM.
With `CCOc1cc(CN2CCC3(CC2)CC(=O)N(CCO)C3)cc(OCC)c1-c1ccc(F)cc1` [Example 9, 8-[(2,6-diethoxy-4′-fluorobiphenyl-4-yl)methyl]-2-(2-hydroxyethyl)-2,8-diazaspiro[4.5]decan-3-one trifluoromethyl acetate], affinity on SSTR5 [1] was put at a Ki of 71 nM. Also, the IC50 at SSTR5 [2] is 159 nM.
Compound `CCOc1cc(CN2CCC3(CC2)CC(=O)N(CCCC(=O)O)C3)cc(OCC)c1-c1ccc(F)cc1` [Example 23] returned a Ki on SSTR5 [1] of 53 nM. The IC50 at SSTR5 [2] stood at 44 nM.
`CCOc1cc(CN2CCC3(CC2)CC(=O)N(c2ccc(C(=O)O)cc2)C3)cc(OCC)c1-c1ccc(C(F)(F)F)cc1` [Example 35]: on SSTR5 [1], the affinity corresponds to a Ki of 0.86 nM. Further, at SSTR5 [2], the IC50 came out at 0.62 nM.
At SSTR5 [1], `CCOc1cc(CN2CCC3(CC2)CC(=O)N(c2ccc(C(=O)O)cc2)C3)cc(OCC)c1-c1ccc(OC(F)(F)F)cc1` [Example 37] yielded a Ki of 0.485 nM. Further, the IC50 on SSTR5 [2] was found to be 0.6 nM.
In the case of `CCOc1cc(CN2CCC3(CC2)CC(=O)N(c2ccc(C(=O)O)cc2)C3)cc(OCC)c1-c1cc(F)ccc1F` [Example 44], the Ki on SSTR5 [1] was determined as 1.55 nM. Also, the IC50 on SSTR5 [2] was determined as 0.28 nM.
Regarding `CCOc1cc(CN2CCC3(CC2)CC(=O)N(c2ccc(C(=O)O)cc2)C3)cc(OCC)c1-c1ccc(F)c(F)c1F` [Example 45], the Ki at SSTR5 [1] came out at 0.84 nM. In addition, the IC50 at SSTR5 [2] stood at 1.5 nM.
The corresponding values for `CCOc1cc(CN2CCC3(CC2)CC(=O)N(c2ccc(-c4n[nH]c(=O)o4)cc2)C3)cc(OCC)c1-c1ccc(F)cc1` [Example 49] are 8.9 nM and 34 nM.
The compound `CCOc1cc(CN2CCC3(CC2)CC(=O)N(Cc2cccc(C(=O)O)c2)C3)cc(OCC)c1-c1ccc(F)cc1` [Example 52] displayed a Ki at SSTR5 [1] of 67 nM. Also, at SSTR5 [2], the IC50 is 21 nM.
As for `CCOc1cc(CN2CCC3(CC2)CC(=O)N(Cc2ccc(F)cc2)C3)cc(OCC)c1-c1ccc(F)cc1` [Example 53], affinity on SSTR5 [1] was put at a Ki of 3.9 nM. The IC50 on SSTR5 [2] came to 8.6 nM.
Regarding `CCOc1cc(CN2CCC3(CC2)CC(=O)N(c2cncc(C(=O)O)c2)C3)cc(OCC)c1-c1ccc(F)cc1` [Example 57], affinity on SSTR5 [1] was put at a Ki of 10 nM. The IC50 on SSTR5 [2] came out at 3.6 nM.
`CCOc1cc(CN2CCC3(CC2)CC(=O)N(c2cccc(-c4nnn[nH]4)c2)C3)cc(OCC)c1-c1ccc(F)cc1` [Example 59]: the Ki on SSTR5 [1] came out at 3.6 nM. Also, the IC50 on SSTR5 [2] amounted to 4.7 nM.
The corresponding values for `CCOc1cc(CN2CCC3(CC2)CC(=O)N(c2cccc(C(N)=O)c2)C3)cc(OCC)c1-c1ccc(F)cc1` [Example 60] are 4.1 nM and 16 nM.
At SSTR5 [1], `CCOc1cc(CN2CCC3(CC2)CC(=O)N(c2ccccc2S(C)(=O)=O)C3)cc(OCC)c1-c1ccc(F)cc1` [Example 61] came in with a Ki of 2 nM. At SSTR5 [2], the IC50 was 13 nM.
Take `CCOc1cc(CN2CCC3(CC2)CC(=O)N(c2ccc(C(=O)O)cc2)C3)cc(OCC)c1-c1ncc(F)cc1F` [Example 65]: the Ki on SSTR5 [1] came to 4.5 nM. The IC50 on SSTR5 [2] is 3.6 nM.
The corresponding values for `O=C(O)c1ccc(N2CC3(CCN(Cc4cc(OC5CC5)c(-c5ncc(F)cc5F)c(OC5CC5)c4)CC3)CC2=O)cc1` [Example 66] are 4.5 nM and 1.8 nM.
On SSTR5 [1], `CCOc1cc(CN2CCC3(CC2)CC(=O)N(c2ccc(O)nc2)C3)cc(OCC)c1-c1ccc(F)cc1` [Example 74] came in with a Ki of 3.1 nM. On SSTR5 [2], the IC50 stood at 3.1 nM.
Turning to `CCOc1cc(CN2CCC3(CC2)CC(=O)N(c2cncc(O)c2)C3)cc(OCC)c1-c1ccc(F)cc1` [Example 81], on SSTR5 [1], the affinity, expressed as Ki, was 3.7 nM. The IC50 at SSTR5 [2] was found to be 7.9 nM.
On SSTR5 [1], `CCOc1cc(CN2CCC3(CC2)CC(=O)N(c2ccc(C(=O)O)cn2)C3)cc(OCC)c1-c1ccc(F)cc1` [Example 84] came in with a Ki of 7.7 nM. The IC50 at SSTR5 [2] was found to be 4.7 nM.
The corresponding values for `CCOc1cc(CN2CCC3(CC2)CC(=O)N(c2ccc(C(=O)O)nc2)C3)cc(OCC)c1-c1ccc(F)cc1` [Example 85] are 5.27 nM and 6.17 nM.
Take `CCOc1cc(CN2CCC3(CC2)CC(=O)N(c2nccc(O)n2)C3)cc(OCC)c1-c1ccc(F)cc1` [Example 87]: the Ki on SSTR5 [1] is 337 nM. Also, the IC50 on SSTR5 [2] worked out at 64 nM.
Consider `CCOc1ccc(-c2ccc(F)cc2F)c(CN2CCC3(CC2)CC(=O)N(c2ccc(C(=O)O)cc2)C3)c1` [Example 94], for which the Ki on SSTR5 [1] turned out to be 11 nM. Further, the IC50 at SSTR5 [2] was 7.3 nM.
As to `CCOc1ccc(-c2ccc(F)c(F)c2F)c(CN2CCC3(CC2)CC(=O)N(c2ccc(C(=O)O)cc2)C3)c1` [Example 97], on SSTR5 [1], the Ki came out at 7.5 nM. For the same compound, the IC50 on SSTR5 [2] stood at 1.8 nM.
Compound `CCOc1cc(CN2CCC3(CC2)CC(=O)N(c2ccc(C(=O)O)cc2)C3)cc(-c2ccc(F)cc2F)c1` [Example 107] registered an inhibitory constant (Ki) at SSTR5 [1] of 40 nM. Besides, at SSTR5 [2], the IC50 was 36 nM.
For the compound `CCOc1cc(CN2CCC3(CC2)CC(=O)N(c2ccc(C(=O)O)cc2)C3)cc(OCC)c1OCC` [Example 148], on SSTR5 [1], the affinity, expressed as Ki, was 157 nM. The IC50 on SSTR5 [2] is 82 nM.
On to `CC(C)Oc1cc(CN2CCC3(CC2)CC(=O)N(c2ccc(C(=O)O)cc2)C3)cc(OC(C)C)c1C#N` [Example 152], for which the Ki at SSTR5 [1] was 14 nM. Also, on SSTR5 [2], the IC50 turned out to be 15 nM.
In the case of `CCOc1cc(CN2CCC3(CC2)CC(=O)N(c2ccc(C(=O)O)cc2)C3)cc(OCC)c1OCC(F)(F)F` [Example 153], affinity on SSTR5 [1] was put at a Ki of 55 nM. Besides, the IC50 on SSTR5 [2] is 42 nM.
The compound `CCOc1cc(CN2CCC3(CC2)CC(=O)N(c2ccc(C(=O)O)cc2)C3)ccc1Cl` [Example 159] showed a Ki at SSTR5 [1] of 130 nM. Moreover, the IC50 on SSTR5 [2] stood at 61 nM.
As for `O=C(O)c1ccc(N2CC3(CCN(Cc4cc(O)c(-c5ccc(F)cc5)c(O)c4)CC3)CC2=O)cc1` [Example 162], the affinity at SSTR5 [1], expressed as Ki, was 1600 nM. Moreover, the half-inhibitory concentration (IC50) at SSTR5 [2] was over 1000 nM.
